In ChEMBL document CHEMBL4311942, “Design of Trp-Rich Dodecapeptides with Broad-Spectrum Antimicrobial Potency and Membrane-Disruptive Mechanism” (J Med Chem, 2019):
Converted amounts (≈) assume the structure as drawn. The source made the active and inactive calls. No cut-off for these calls is given here. Where a SMILES comes first, the peptide text is derived from it.

Key:
Escherichia coli [1] = assay: Antibacterial activity against Escherichia coli 20411 clinical isolate incubated for 18 to 24 hrs by broth microdilution method; format: functional
Acinetobacter baumannii = assay: Antibacterial activity against Acinetobacter baumannii AB1902 clinical isolate incubated for 18 to 24 hrs by broth microdilution method; format: functional
Pseudomonas aeruginosa [2] = assay: Antibacterial activity against Pseudomonas aeruginosa 25349 clinical isolate incubated for 18 to 24 hrs by broth microdilution method; format: functional
Staphylococcus aureus [3] = assay: Antibacterial activity against Staphylococcus aureus 11011 incubated for 18 to 24 hrs by broth microdilution method; format: functional
Erythrocyte = assay: Haemolytic activity in human erythrocytes assessed as lowest concentration causing 5% hemolysis after 1 hr; format: ADME, cell-based
[4] = Cytotoxicity against mouse RAW264.7 cells assessed as cell survival at […] after 24 hrs by MTT assay relative to control; format: cell-based; details: read-out: Activity
Escherichia coli [5] = assay: Bactericidal activity against Escherichia coli ATCC 25922 assessed as reduction in bacterial growth at 2 times MIC after 60 mins by time kill assay relative to control; format: functional
Escherichia coli [6] = assay: Bactericidal activity against Escherichia coli ATCC 25922 assessed as reduction in bacterial growth at 4 times MIC after 30 mins by time kill assay relative to control; format: functional
Escherichia coli [7] = assay: Bactericidal activity against Escherichia coli ATCC 25922 at 2 times MIC after 120 mins by time kill assay relative to control; format: functional
Staphylococcus aureus [8] = assay: Bactericidal activity against Staphylococcus aureus ATCC 29213 at 2 times MIC after 60 mins by time kill assay; format: functional, organism-based
Escherichia coli [9] = assay: Antibacterial activity against Escherichia coli ATCC 25922 using preheated compound at 100 degreeC for 1 hr by broth microdilution method; format: functional; details: ATCC 25922, 1 h
Escherichia coli [10] = assay: Antibacterial activity against Escherichia coli ATCC 25922 in presence of KCl by broth microdilution method; format: functional
Escherichia coli [11] = assay: Antibacterial activity against Escherichia coli ATCC 25922 in presence of NH4Cl by broth microdilution method; format: functional
Escherichia coli [12] = assay: Antibacterial activity against Escherichia coli ATCC 25922 in presence of ZnCl2 by broth microdilution method; format: functional
Escherichia coli [13] = assay: Antibacterial activity against Escherichia coli ATCC 25922 in presence of CaCl2 by broth microdilution method; format: functional
Escherichia coli [14] = assay: Antibacterial activity against Escherichia coli ATCC 25922 in presence of FeCl3 by broth microdilution method; format: functional
Escherichia coli [15] = assay: Antibacterial activity against Escherichia coli ATCC 25922 incubated for 2 hrs in presence of sodium phosphate buffer at pH 2 by broth microdilution method; format: functional; details: ATCC 25922, 2 h
Escherichia coli [16] = assay: Antibacterial activity against Escherichia coli ATCC 25922 in presence of NaBH4 by broth microdilution method; format: functional
Staphylococcus aureus [17] = assay: Antibacterial activity against Staphylococcus aureus ATCC 29213 using preheated compound at 100 degreeC for 1 hr by broth microdilution method; format: functional; details: ATCC 29213, 1 h
Staphylococcus aureus [18] = assay: Antibacterial activity against Staphylococcus aureus ATCC 29213 in presence of NaCl by broth microdilution method; format: functional
Staphylococcus aureus [19] = assay: Antibacterial activity against Staphylococcus aureus ATCC 29213 in presence of NH4Cl by broth microdilution method; format: functional
Staphylococcus aureus [20] = assay: Antibacterial activity against Staphylococcus aureus ATCC 29213 in presence of ZnCl2 by broth microdilution method; format: functional
Staphylococcus aureus [21] = assay: Antibacterial activity against Staphylococcus aureus ATCC 29213 in presence of FeCl3 by broth microdilution method; format: functional
Staphylococcus aureus [22] = assay: Antibacterial activity against Staphylococcus aureus ATCC 29213 in presence of 25% serum by broth microdilution method; format: functional
Staphylococcus aureus [23] = assay: Antibacterial activity against Staphylococcus aureus ATCC 29213 in presence of 50% serum by broth microdilution method; format: functional
Staphylococcus aureus [24] = assay: Antibacterial activity against Staphylococcus aureus ATCC 29213 incubated for 2 hrs in presence of sodium phosphate buffer at pH 10 by broth microdilution method; format: functional; details: ATCC 29213, 2 h
Staphylococcus aureus [25] = assay: Antibacterial activity against Staphylococcus aureus ATCC 29213 incubated for 2 hrs in presence of sodium phosphate buffer at pH 12 by broth microdilution method; format: functional; details: ATCC 29213, 2 h
Staphylococcus aureus [26] = assay: Antibacterial activity against Staphylococcus aureus ATCC 29213 in presence of H202 by broth microdilution method; format: functional
Staphylococcus aureus [27] = assay: Antibacterial activity against Staphylococcus aureus ATCC 29213 in presence of NaBH4 by broth microdilution method; format: functional
Lipopolysaccharide (LPS) = assay: Displacement of BODIPY-TR-cadaverine from Escherichia coli O111:B4 LPS assessed as increase in fluorescence intensity at 64 uM by spectrofluorophotometric method relative to control
Escherichia coli [28] = assay: Induction of outer membrane permeabilization in Escherichia coli UB1005 assessed as increase in NPN uptake by spectrofluorophotometric assay; format: organism-based
Escherichia coli [29] = assay: Induction of cytoplasmic membrane depolarization in Escherichia coli UB1005 by DiSC3-5 dye based fluorescence method; format: organism-based
Escherichia coli [30] = assay: Inhibition of swimming motility of Escherichia coli ATCC 25922 after 16 hrs; format: functional, organism-based
Staphylococcus aureus [31] = assay: Antibacterial activity against Staphylococcus aureus ATCC 29213 incubated for 18 to 24 hrs using FITC-labelled peptide by broth microdilution method; format: functional, organism-based
Escherichia coli [32] = assay: Induction of cell membrane disruption in Escherichia coli ATCC 25922 after 30 mins by propidium iodide-staining based flow cytometric analysis; format: organism-based
Escherichia coli [33] = assay: Induction of cell membrane disruption in Escherichia coli ATCC 25922 assessed as propidium iodide-positive cells at 2 times MIC after 30 mins by flow cytometric analysis (reference value: 0.8%)
Escherichia coli [34] = assay: Induction of cell membrane disruption in Escherichia coli ATCC 25922 assessed as appearance of membrane atrophy at 1 times MIC after 60 mins by field emission scanning electron microscopy; format: organism-based
Escherichia coli [35] = assay: Disruption of Escherichia coli ATCC 25922 cell membrane assessed as induction of arachnoid damage at 2 times MIC after 60 mins by field emission scanning electron microscopy; format: organism-based
Staphylococcus aureus [36] = assay: Induction of cell membrane disruption in Staphylococcus aureus ATCC 29213 assessed as apperance of rough membrane with discrete blebs at 1 times MIC after 60 mins by field emission scanning electron microscopy; format: organism-based
Staphylococcus aureus [37] = assay: Induction of cell membrane disruption in Staphylococcus aureus ATCC 29213 assessed as apperance of broken and empty cell envelope at 2 times MIC after 60 mins by field emission scanning electron microscopy; format: organism-based
Escherichia coli [38] = assay: Induction of cell membrane disruption in Escherichia coli ATCC 25922 assessed as leakage of cellular contents at 1 to 2 times MIC after 60 mins by transmission electron microscopy; format: organism-based
Escherichia coli [39] = assay: Induction of cell membrane disruption in Escherichia coli ATCC 25922 assessed as seperation of cytoplasmic membrane from outer membrane at 2 times MIC after 60 mins by transmission electron microscopy; format: organism-based
Staphylococcus aureus [40] = assay: Induction of cell membrane disruption in Staphylococcus aureus ATCC 29213 assessed as leakage of cellular content at 1 to 2 times MIC after 60 mins by transmission electron microscopy; format: organism-based
Pseudomonas aeruginosa [41] = assay: Antibacterial activity against Pseudomonas aeruginosa PAO1 at sub-MIC treated over 35 serial passages by resistant development assay; format: functional, organism-based

CC(C)C[C@H](NC(=O)[C@H](CCCNC(=N)N)NC(=O)[C@H](Cc1c[nH]c2ccccc12)NC(=O)[C@H](CCCNC(=N)N)NC(=O)[C@@H](NC(=O)[C@H](CCCCN)NC(=O)[C@H](Cc1c[nH]c2ccccc12)NC(=O)[C@H](CCCNC(=N)N)NC(=O)[C@H](CC(C)C)NC(=O)[C@H](CCCNC(=N)N)NC(=O)[C@@H](N)Cc1c[nH]c2ccccc12)[C@@H](C)O)C(=O)N[C@@H](CCCCN)C(N)=O (H-WRLRWKTRWRLK-NH2)
MIC (Escherichia coli [1]): 2 µM (≈ 3.57 µg/mL) | MIC (Acinetobacter baumannii): 4 µM (≈ 7.14 µg/mL) | MIC (Pseudomonas aeruginosa [2]): 8 µM (≈ 14.3 µg/mL) | MIC (Staphylococcus aureus [3]): 2 µM (≈ 3.57 µg/mL) | MHC (Erythrocyte): > 128 µM | viability at 24 h, […] [4]: ≤ 90% | log(activity) (Escherichia coli [5]): 1 | log(activity) (Escherichia coli [6]): 1 | Activity (Escherichia coli [7]): 100% | Activity (Staphylococcus aureus [8]): Active | MIC (Escherichia coli [9]): 2 µM (≈ 3.57 µg/mL) | MIC (Escherichia coli [10]): 2 µM | MIC (Escherichia coli [11]): 1 µM | MIC (Escherichia coli [12]): 4 µM | MIC (Escherichia coli [13]): 2 µM | MIC (Escherichia coli [14]): 4 µM | MIC (Escherichia coli [15]): 4 µM | MIC (Escherichia coli [16]): 4 µM | MIC (Staphylococcus aureus [17]): 2 µM (≈ 3.57 µg/mL) | MIC (Staphylococcus aureus [18]): 8 µM | MIC (Staphylococcus aureus [19]): 4 µM | MIC (Staphylococcus aureus [20]): 4 µM | MIC (Staphylococcus aureus [21]): 4 µM | MIC (Staphylococcus aureus [22]): 8 µM | MIC (Staphylococcus aureus [23]): 8 µM | MIC (Staphylococcus aureus [24]): 4 µM | MIC (Staphylococcus aureus [25]): 8 µM | MIC (Staphylococcus aureus [26]): 4 µM | MIC (Staphylococcus aureus [27]): 4 µM | Activity (Lipopolysaccharide (LPS)): 92% | Activity (Escherichia coli [28]): Dose-dependent effect | Activity (Escherichia coli [29]): Dose-dependent effect | inhibition (Escherichia coli [30]): Dose-dependent effect | Activity (Staphylococcus aureus [31]): Active | Activity (Escherichia coli [32]): Dose-dependent effect | Activity (Escherichia coli [33]): 91.7% | Activity (Escherichia coli [34]): Active | Activity (Escherichia coli [35]): Active | Activity (Staphylococcus aureus [36]): Active | Activity (Staphylococcus aureus [37]): Active | Activity (Escherichia coli [38]): Active | Activity (Escherichia coli [39]): Active | Activity (Staphylococcus aureus [40]): Active | Activity (Pseudomonas aeruginosa [41]): Active
